The text below walks through data of patent publication US20210395313A1, “PEPTIDE PAC1 ANTAGONISTS” (AMGEN INC., priority 2017, published 2021).

Where a SMILES comes first, the peptide text is derived from it. Bridges are numbered along the chain shown (N, C = ends). Where no end group is shown, it is not given here. Where only a bound is given, the exact number is not on record here.

One experiment concerns the target T1, human PAC1 receptor (Homo sapiens, UniProt P41586).
T1 construct: SHSY-5Y (human neuroblastoma cell line) and RG-2 (rat glioma cell line) cells endogenously express human and rat PAC1 receptors, respectively; endogenous in cells; host or cells: SHSY-5Y human neuroblastoma cells
T1 sequence (P41586 21-468): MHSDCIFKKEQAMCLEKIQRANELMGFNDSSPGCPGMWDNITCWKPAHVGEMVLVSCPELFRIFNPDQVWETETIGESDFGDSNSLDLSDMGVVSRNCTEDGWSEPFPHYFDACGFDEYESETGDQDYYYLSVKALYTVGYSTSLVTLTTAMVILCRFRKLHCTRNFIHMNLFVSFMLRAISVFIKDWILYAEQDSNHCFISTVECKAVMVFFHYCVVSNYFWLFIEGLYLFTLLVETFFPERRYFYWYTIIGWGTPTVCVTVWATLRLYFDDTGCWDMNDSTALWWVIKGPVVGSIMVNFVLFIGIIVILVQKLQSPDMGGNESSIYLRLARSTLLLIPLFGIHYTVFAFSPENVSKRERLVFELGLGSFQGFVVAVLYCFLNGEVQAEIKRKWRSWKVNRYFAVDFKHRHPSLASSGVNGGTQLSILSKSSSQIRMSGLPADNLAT
The experiment can be described thus: LANCE Ultra cAMP accumulation antagonist assay in SHSY-5Y cells.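 Note: inhibition of cAMP accumulation evoked by PAC1 agonist at its EC80 in SHSY-5Y cells endogenously expressing receptor, 30 min preincubation then 15 min agonist, TR-FRET readout.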 Format: cell-based. (In general: Time-resolved FRET reads energy transfer from a long-lived donor to a nearby acceptor.)

For another experiment, the target named is T2, rat PAC1 receptor (Rattus norvegicus, UniProt P32215).
T2 construct: SHSY-5Y (human neuroblastoma cell line) and RG-2 (rat glioma cell line) cells endogenously express human and rat PAC1 receptors, respectively; endogenous in cells; host or cells: RG-2 rat glioma cells
T2 sequence (P32215 20-523): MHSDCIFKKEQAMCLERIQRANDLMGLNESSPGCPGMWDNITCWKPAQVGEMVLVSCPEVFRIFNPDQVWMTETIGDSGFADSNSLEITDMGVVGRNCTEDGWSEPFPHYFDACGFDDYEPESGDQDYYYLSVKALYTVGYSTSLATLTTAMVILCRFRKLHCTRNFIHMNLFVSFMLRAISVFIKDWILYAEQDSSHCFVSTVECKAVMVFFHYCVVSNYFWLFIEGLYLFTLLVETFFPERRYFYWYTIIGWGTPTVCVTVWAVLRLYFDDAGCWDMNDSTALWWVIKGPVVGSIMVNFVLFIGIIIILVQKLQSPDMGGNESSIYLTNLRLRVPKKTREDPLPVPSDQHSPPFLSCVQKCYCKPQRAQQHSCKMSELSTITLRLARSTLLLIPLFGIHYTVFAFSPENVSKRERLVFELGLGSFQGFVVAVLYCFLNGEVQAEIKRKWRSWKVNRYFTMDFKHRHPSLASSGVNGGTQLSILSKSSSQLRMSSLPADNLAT
The experiment in a line: LANCE Ultra cAMP accumulation antagonist assay in RG-2 cells.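 Note: RG-2 rat glioma cells endogenously expressing PAC1, test peptide preincubated 30 min, then PAC1 agonist added at its EC80 for 15 min, cAMP accumulation read by LANCE Ultra.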 Format: cell-based.

Another experiment has as its target T3, PAC1 (Rattus norvegicus, UniProt P32215).
T3 construct: Naive male Sprague Dawley® rats aged 8-12 weeks at the time of the study were purchased from Charles River Laboratories; tissue Charles River Laboratories; host or cells: live male Sprague Dawley rats; dermal blood flow on abdominal skin
T3 sequence (P32215 20-523): T2 sequence (P32215 20-523)
The experiment can be described thus: Rat maxadilan-induced increase in blood flow (MIIBF) PD model, laser Doppler imaging. It is filed as in vivo. As to the method: PAC1 peptide antagonists were also evaluated in an in vivo pharmacodynamic model—a model of maxadilan-induced increase in blood flow.
Naive male Sprague Dawley® rats aged 8-12 weeks at the time of the study were purchased from Charles River Laboratories. Animals were group-housed in non-sterile, ventilated micro-isolator housing in Amgen Assessment and Accreditation of Laboratory Animal Committee (AAALAC)-accredited facility. Animals had ad libitum access to pelleted feed (Harlan Teklad 2020X, Indianapolis, IN) and water (on-site generated reverse osmosis) via automatic watering system.
All PAC1 peptides were tested in a rat maxadilan-induced increase in blood flow (MIIBF) pharmacodynamic (PD) model with a laser Doppler imaging. A dosing solution of maxadilan (Bachem, H6734.0500) was prepared fresh daily by diluted maxadilan stock solution (0.5 mg/mL) in 1× PBS to the final concentration of 0.5 μg/mL. All tested peptides were prepared in 1× PBS at different concentrations depend on the dose required for the experiment and given in a single bolus i.v. or s.c. injection. A laser Doppler imager (LDI-2, Moor Instruments, Ltd, Wilmington, Del.) was used to measure dermal blood flow (DBF) on the shaved skin of the rat abdomen with a low-power laser beam generated by a 633 nm helium-neon bulb. The measurement resolution was 0.2 to 2 mm, with scanning distances between the instrument aperture and the tissue surface of 30 cm. In this report, DBF was measured and expressed as % change from baseline [100×(individual post-CAP flux-individual baseline flux)/individual baseline flux] and further calculated to % Inhibition to quantify the magnitude of drug effect [Mean of vehicle % change from BL−individual drug treated rat % change from BL)/Mean of vehicle % change from BL].
On the test day, following anesthetization with propofol, the rat's abdominal area was shaved and each animal was placed in a supine position on a temperature-controlled circulating warm-water pad to maintain a stable body temperature during the study. After a 10 to 15 minute stabilization period, a rubber O-ring (0.925 cm inner diameter, O-Rings West, Seattle, Wash.) was placed on the rat abdomen without directly positioning it over a visible blood vessel while the rat placed in a supine position on a temperature-controlled circulating warm-water pad to maintain a stable body temperature during the study. After placement of an O-ring on the selected area, a baseline (BL) DBF measurement was taken. After the BL scan, PAC1 peptides were administrated either 5 min for i.v., or 15 min for s.c. then followed by 20 μL (in 0.5 μg/mL) intradermal injection of maxadilan at the center of the O-ring. The post-maxadilan DBF was measured at 30 min and the post peptides time was 35 min for i.v. and 45 min for s.c. respectively. The O-ring serves as an area of interest in which the DBF will be analyzed within the O-ring.
All DBF results were expressed as the mean±SEM. A one-way ANOVA followed by Dunnett's Multiple Comparison Test (MCT) was used to assess the statistical significance of PAC1 peptides effects relative to the vehicle within the study. A p<0.05 was used to determine significance between any two groups.

For the compound `CC[C@H](C)[C@H](NC(=O)[C@H](C)NC(=O)[C@H](CCCCN)NC(=O)[C@H](CCCNC(=N)N)NC(=O)[C@H](Cc1ccccc1)NC(=O)[C@H](CCC(N)=O)NC(=O)[C@@H]1CSSC[C@H](N)C(=O)N[C@@H](CC(=O)O)C(=O)N[C@@H](C)C(=O)N[C@@H]([C@@H](C)O)C(=O)N1)C(=O)N[C@@H](CC(=O)O)C(=O)N[C@@H](CC(=O)O)C(=O)N[C@H]1CSSC[C@@H](C(=O)N[C@@H](CCSC)C(=O)N[C@@H](CCCCN)C(=O)N[C@@H](CCC(N)=O)C(=O)N[C@@H](CCCCN)C(=O)N[C@@H](CCCCN)C(=O)N[C@@H](CCCCN)C(=O)N[C@@H](CCC(=O)O)C(=O)N[C@@H](Cc2c[nH]c3ccccc23)C(=O)N[C@@H](CCCCN)C(=O)N[C@@H](C)C(=O)NCC(N)=O)NC(=O)[C@H](C)NC(=O)[C@H](CCCCN)NC(=O)[C@H](Cc2ccccc2)NC(=O)[C@H](C(C)C)NC(=O)[C@H](CO)NC(=O)[C@H](CO)NC(=O)[C@H](Cc2c[nH]cn2)NC(=O)[C@H](Cc2ccc(O)cc2)NC(=O)[C@H](C)NC(=O)[C@H](CCC(N)=O)NC(=O)[C@H](CCCNC(=N)N)NC(=O)[C@H](C)NC1=O` [SEQ ID NO 65] (H-CDATCQFRKAIDDCARQAYHSSVFKACMKQKKKEWKAG-NH2; disulfide 1-5, 14-27), the half-maximal inhibitory concentration (IC50) at human PAC1 receptor and against rat PAC1 receptor was 0.01 to 1 nM in each case. For the same compound, the “inhibition of maxadilan-induced increase in DBF” value against PAC1 (single bolus s.c., lowest dose of 0.3 mg/kg, 15 min prior to maxadilan, 45 min post peptide treatment) is “statistically significant inhibition”.
Turning to `CC[C@H](C)[C@H](NC(=O)[C@H](C)NC(=O)[C@H](CCCCN)NC(=O)[C@H](CCCNC(=N)N)NC(=O)[C@H](Cc1ccccc1)NC(=O)[C@H](CCC(N)=O)NC(=O)[C@@H]1CSSC[C@H](N)C(=O)N[C@@H](CC(=O)O)C(=O)N[C@@H](C)C(=O)N[C@@H]([C@@H](C)O)C(=O)N1)C(=O)N[C@@H](CC(=O)O)C(=O)N[C@@H](CC(=O)O)C(=O)N[C@H]1CSSC[C@@H](C(=O)N[C@@H](CCSC)C(=O)N[C@@H](CCCCN)C(=O)N[C@@H](CCC(N)=O)C(=O)N[C@@H](CCCCN)C(=O)N[C@@H](CCCCN)C(=O)N[C@@H](CCCCN)C(=O)N[C@@H](CCC(=O)O)C(=O)N[C@@H](Cc2ccccc2)C(=O)N[C@@H](CCCCN)C(=O)N[C@@H](C)C(=O)NCC(N)=O)NC(=O)[C@H](C)NC(=O)[C@H](CCCCN)NC(=O)[C@H](Cc2ccccc2)NC(=O)[C@H](C(C)C)NC(=O)[C@H](CO)NC(=O)CNC(=O)[C@@H]2CCCN2C(=O)[C@H](C(C)C)NC(=O)[C@H](CC(N)=O)NC(=O)[C@H](CO)NC(=O)[C@H](Cc2c[nH]cn2)NC(=O)[C@H](Cc2c[nH]cn2)NC(=O)[C@H](C)NC(=O)[C@H](CCC(N)=O)NC(=O)[C@H](CCCCN)NC(=O)[C@H](CCC(N)=O)NC1=O` [SEQ ID NO 233], the values for the IC50 at human PAC1 receptor and against rat PAC1 receptor were 1 to 100 nM and 0.01 to 1 nM, respectively. The “inhibition of MIIBF (dermal blood flow)” value against PAC1 (single bolus i.v., lowest dose of 0.1 mg/kg, 5 min prior to maxadilan, 35 min post peptide treatment) is listed as “statistically significant inhibition”.
Regarding “CDATCQFRKAIDDCYYRSWHSNVPGSVFKACMKFRFNVWKAG-NH2 (disulfide 1-5, 14-31) [compound 67]”, the IC50 fell in the range of 1 to 100 nM against human PAC1 receptor and 0.01 to 1 nM against rat PAC1 receptor.
In the same order, the values of “CDATCQFRKAIDDCYYRSWHSNVPGSVFKACMKQKKKEFKAG (disulfide 1-5, 14-31) [compound 64]” are 1 to 100 nM and 0.01 to 1 nM.
In the same order, the values of “CDATCQFRKAIDDCYYRSWHSNVPGSVFKACMKQKKKEFKAG-NH2 (disulfide 1-5, 14-31) [compound 149]” are 0.01 to 1 nM and 0.01 to 1 nM.
Taken in the same sequence, the figures for “CDATCQFRKAIDDCYYRSWHSNVPGSVFKACMKQRKKRWLAG-NH2 (disulfide 1-5, 14-31) [compound 69]” were 0.01 to 1 nM and 0.01 to 1 nM.
On to “CDATCQFRKAIDDCYYYAMHSNVPGSVWKACLKQKKKEFKAG-NH2 (disulfide 1-5, 14-31) [compound 78]”, for which the IC50 against human PAC1 receptor and on rat PAC1 receptor was 0.01 to 1 nM throughout.
For “CDATCQFRKAIDDCYYYAMHSNVPGSVWKACMKQKKKEFKAG-NH2 (disulfide 1-5, 14-31) [compound 150]”, the IC50 against human PAC1 receptor and against rat PAC1 receptor was 0.01 to 1 nM throughout.
On to “CDATCQFRKAIDECAKQAHHSNVPGSVFKACMKQKKKEFKAG-NH2 (disulfide 1-5, 14-31) [compound 12]”, for which the results for the IC50 on human PAC1 receptor and against rat PAC1 receptor were 0.01 to 1 nM and less than 0.01 nM, respectively.
Taken in the same sequence, the figures for “CDATCQFRKAIDECARQAHHSNVPGSVFKACMKQKKKEWKAGH (disulfide 1-5, 14-31) [compound 25]” were 0.01 to 1 nM and less than 0.01 nM.
In the same order, the values of “CDATCQYRKGLVACLYKKVAMQKRYSVFKACMKQKKKEFKAG-NH2 (disulfide 1-5, 14-31) [compound 46]” are 1 to 100 nM and 0.01 to 1 nM.
Taken in the same sequence, the figures for “CEATCQFRKAIDDCARQAHHSNVPGSVFKACMKQKKKEWKAGH (disulfide 1-5, 14-31) [compound 11]” were 0.01 to 1 nM and 0.01 to 1 nM.
As to “GCDATCQFRKAIDDCAKQAHHSNVPGSVFKACMKQKKKEFKAGH (disulfide 2-6, 15-32) [compound 59]”, the IC50 against human PAC1 receptor and at rat PAC1 receptor was 0.01 to 1 nM each time.
With “GCDATCQFRKAIDDCAKQAHHSNVPGSVFKACMKQKKKEFKAGY (disulfide 2-6, 15-32) [SEQ ID NO 58]”, the IC50 against human PAC1 receptor and at rat PAC1 receptor was 0.01 to 1 nM each time.
With “SDATSQYRKGLVACLYKKVAMQKRYSVFKACMKQKKKEWKAG-NH2 (disulfide 14-31) [compound 426]”, the IC50 on human PAC1 receptor was in the range of 1 to 100 nM; on rat PAC1 receptor, 0.01 to 1 nM.

In general, IC50 refers to the concentration that inhibits the measured activity by half. High values mean weaker potency, low ones greater potency.
